Results published in patent US20070049564A1 (Wyeth, priority 2005, published 2007).
Values after ≈ are worked out from the molar mass of the structure shown. Where two headings read alike, the source gives them in different places.

Tests used:
E. faecium GC 4556 = experiment: MIC, broth microdilution; conditions: Enterococcus faecium
c. albicans GC 3066 = experiment: MIC, broth microdilution
E. coli GC 2270 = experiment: MIC, broth microdilution; conditions: Escherichia coli
E. coli GC 1073 = experiment: MIC, broth microdilution; conditions: Escherichia coli
E. coli GC 2233 = experiment: MIC, broth microdilution; conditions: Escherichia coli
E. faecalis GC 2242 = experiment: MIC, broth microdilution; conditions: Enterococcus faecalis
S. aureus GC 6466 = experiment: MIC, broth microdilution; conditions: Staphylococcus aureus
E. coli GC 2231 = experiment: MIC, broth microdilution; conditions: Escherichia coli
S. aureus GC 2216 = experiment: MIC, broth microdilution; conditions: Staphylococcus aureus
E. coli GC 4560 = experiment: MIC, broth microdilution; conditions: Escherichia coli
S. aureus GC 6467 = experiment: MIC, broth microdilution; conditions: Staphylococcus aureus
S. aureus GC 6469 = experiment: MIC, broth microdilution; conditions: Staphylococcus aureus
S. aureus GC 4536 = experiment: MIC, broth microdilution; conditions: Staphylococcus aureus
E. faecium GC 2243 = experiment: MIC, broth microdilution; conditions: Enterococcus faecium
S. aureus GC 1079 = experiment: MIC, broth microdilution; conditions: Staphylococcus aureus
E. coli GC 6465 = experiment: MIC, broth microdilution; conditions: Escherichia coli
E. coli = experiment: Range of MIC for E. coli strains; conditions: Escherichia coli
Staph. = experiment: Range of MIC for Staph. strains, including MRSA; conditions: Staphylococcus aureus
E. coli GC 2235 = experiment: MIC, broth microdilution; conditions: Escherichia coli
S. typhimurium GC 2172 = experiment: MIC, broth microdilution; conditions: Salmonella enterica, TYPHIMURIUM

Compound: CC(C)COC(=O)N(CC(=O)Nc1cc(N(C)C)c2c(c1O)C(=O)C1=C(O)[C@]3(O)C(=O)C(C(N)=O)=C(O)[C@@H](N(C)C)[C@@H]3C[C@@H]1C2)C(C)(C)C [Example 59, isobutyl 2-{[(5aR,6aS,7S,10aS)-9-(aminocarbonyl)-4,7-bis(dimethylamino)-1,8,10a,11-tetrahydroxy-10,12-dioxo-5,5a,6,6a,7,10,10a,12-octahydrotetracen-2-yl]amino}-2-oxoethyl(tert-butyl)carbamate]
- MIC (E. faecium GC 4556; GC4556, read-out: MINIMAL INHIBITORY CONCENTRATION MIC, Human Serum): 4 µg/mL (≈ 5.83 µM)
- MIC (E. faecium GC 4556; GC4556, read-out: MINIMAL INHIBITORY CONCENTRATION MIC, Mouse Serum): 4 µg/mL (≈ 5.83 µM)
- MIC (E. faecium GC 4556; GC4556, read-out: MINIMAL INHIBITORY CONCENTRATION MIC, Water): 4 µg/mL (≈ 5.83 µM)
- MIC (c. albicans GC 3066; Candida albicans, GC3066, read-out: MINIMAL INHIBITORY CONCENTRATION MIC): > 64 µg/mL
- MINIMAL INHIBITORY CONCENTRATION MIC (c. albicans GC 3066; Human Serum): >64 UG/ML
- MINIMAL INHIBITORY CONCENTRATION MIC (c. albicans GC 3066; Mouse Serum): >64 UG/ML
- MIC (E. coli GC 2270; GC2270, read-out: MINIMAL INHIBITORY CONCENTRATION MIC, Human Serum): > 64 µg/mL
- MIC (E. coli GC 2270; GC2270, read-out: MINIMAL INHIBITORY CONCENTRATION MIC, Mouse Serum): > 64 µg/mL
- MIC (E. coli GC 2270; GC2270, read-out: MINIMAL INHIBITORY CONCENTRATION MIC, Water): > 64 µg/mL
- MIC (E. coli GC 1073; GC1073, read-out: MINIMAL INHIBITORY CONCENTRATION MIC, Human Serum): > 64 µg/mL
- MIC (E. coli GC 1073; GC1073, read-out: MINIMAL INHIBITORY CONCENTRATION MIC, Mouse Serum): > 64 µg/mL
- MIC (E. coli GC 1073; GC1073, read-out: MINIMAL INHIBITORY CONCENTRATION MIC, Water): > 64 µg/mL
- MIC (E. coli GC 2233; GC2233, read-out: MINIMAL INHIBITORY CONCENTRATION MIC, Human Serum): > 64 µg/mL
- MIC (E. coli GC 2233; GC2233, read-out: MINIMAL INHIBITORY CONCENTRATION MIC, Mouse Serum): > 64 µg/mL
- MIC (E. coli GC 2233; GC2233, read-out: MINIMAL INHIBITORY CONCENTRATION MIC, Water): > 64 µg/mL
- MIC (E. faecalis GC 2242; GC2242, read-out: MINIMAL INHIBITORY CONCENTRATION MIC, Human Serum): 4 µg/mL (≈ 5.83 µM)
- MIC (E. faecalis GC 2242; GC2242, read-out: MINIMAL INHIBITORY CONCENTRATION MIC, Mouse Serum): 2 µg/mL (≈ 2.92 µM)
- MIC (E. faecalis GC 2242; GC2242, read-out: MINIMAL INHIBITORY CONCENTRATION MIC, Water): 4 µg/mL (≈ 5.83 µM)
- MIC (S. aureus GC 6466; GC6466, read-out: MINIMAL INHIBITORY CONCENTRATION MIC, Human Serum): 4 µg/mL (≈ 5.83 µM)
- MIC (S. aureus GC 6466; GC6466, read-out: MINIMAL INHIBITORY CONCENTRATION MIC, Mouse Serum): 4 µg/mL (≈ 5.83 µM)
- MIC (S. aureus GC 6466; GC6466, read-out: MINIMAL INHIBITORY CONCENTRATION MIC, Water): 8 µg/mL (≈ 11.7 µM)
- MIC (E. coli GC 2231; GC2231, read-out: MINIMAL INHIBITORY CONCENTRATION MIC, Human Serum): > 64 µg/mL
- MIC (E. coli GC 2231; GC2231, read-out: MINIMAL INHIBITORY CONCENTRATION MIC, Mouse Serum): > 64 µg/mL
- MIC (E. coli GC 2231; GC2231, read-out: MINIMAL INHIBITORY CONCENTRATION MIC, Water): > 64 µg/mL
- MIC (S. aureus GC 2216; GC2216, read-out: MINIMAL INHIBITORY CONCENTRATION MIC, Human Serum): 4 µg/mL (≈ 5.83 µM)
- MIC (S. aureus GC 2216; GC2216, read-out: MINIMAL INHIBITORY CONCENTRATION MIC, Mouse Serum): 4 µg/mL (≈ 5.83 µM)
- MIC (S. aureus GC 2216; GC2216, read-out: MINIMAL INHIBITORY CONCENTRATION MIC, Water): 4 µg/mL (≈ 5.83 µM)
- MIC (E. coli GC 4560; GC4560, read-out: MINIMAL INHIBITORY CONCENTRATION MIC, Human Serum): 4 µg/mL (≈ 5.83 µM)
- MIC (E. coli GC 4560; GC4560, read-out: MINIMAL INHIBITORY CONCENTRATION MIC, Mouse Serum): 4 µg/mL (≈ 5.83 µM)
- MIC (E. coli GC 4560; GC4560, read-out: MINIMAL INHIBITORY CONCENTRATION MIC, Water): 4 µg/mL (≈ 5.83 µM)
- MIC (S. aureus GC 6467; GC6467, read-out: MINIMAL INHIBITORY CONCENTRATION MIC, Human Serum): 4 µg/mL (≈ 5.83 µM)
- MIC (S. aureus GC 6467; GC6467, read-out: MINIMAL INHIBITORY CONCENTRATION MIC, Mouse Serum): 4 µg/mL (≈ 5.83 µM)
- MIC (S. aureus GC 6467; GC6467, read-out: MINIMAL INHIBITORY CONCENTRATION MIC, Water): 4 µg/mL (≈ 5.83 µM)
- MIC (S. aureus GC 6469; GC6469, read-out: MINIMAL INHIBITORY CONCENTRATION MIC, Human Serum): 4 µg/mL (≈ 5.83 µM)
- MIC (S. aureus GC 6469; GC6469, read-out: MINIMAL INHIBITORY CONCENTRATION MIC, Mouse Serum): 4 µg/mL (≈ 5.83 µM)
- MIC (S. aureus GC 6469; GC6469, read-out: MINIMAL INHIBITORY CONCENTRATION MIC, Water): 4 µg/mL (≈ 5.83 µM)
- MIC (S. aureus GC 4536; GC4536, read-out: MINIMAL INHIBITORY CONCENTRATION MIC, Human Serum): 4 µg/mL (≈ 5.83 µM)
- MIC (S. aureus GC 4536; GC4536, read-out: MINIMAL INHIBITORY CONCENTRATION MIC, Mouse Serum): 4 µg/mL (≈ 5.83 µM)
- MIC (S. aureus GC 4536; GC4536, read-out: MINIMAL INHIBITORY CONCENTRATION MIC, Water): 4 µg/mL (≈ 5.83 µM)
- MIC (E. faecium GC 2243; GC2243, read-out: MINIMAL INHIBITORY CONCENTRATION MIC, Human Serum): 8 µg/mL (≈ 11.7 µM)
- MIC (E. faecium GC 2243; GC2243, read-out: MINIMAL INHIBITORY CONCENTRATION MIC, Mouse Serum): 4 µg/mL (≈ 5.83 µM)
- MIC (E. faecium GC 2243; GC2243, read-out: MINIMAL INHIBITORY CONCENTRATION MIC, Water): 4 µg/mL (≈ 5.83 µM)
- MIC (S. aureus GC 1079; GC1079, read-out: MINIMAL INHIBITORY CONCENTRATION MIC, Human Serum): 2 µg/mL (≈ 2.92 µM)
- MIC (S. aureus GC 1079; GC1079, read-out: MINIMAL INHIBITORY CONCENTRATION MIC, Mouse Serum): 4 µg/mL (≈ 5.83 µM)
- MIC (S. aureus GC 1079; GC1079, read-out: MINIMAL INHIBITORY CONCENTRATION MIC, Water): 8 µg/mL (≈ 11.7 µM)
- MIC (E. coli GC 6465; GC6465, read-out: MINIMAL INHIBITORY CONCENTRATION MIC, Human Serum): > 64 µg/mL
- MIC (E. coli GC 6465; GC6465, read-out: MINIMAL INHIBITORY CONCENTRATION MIC, Mouse Serum): 32 µg/mL (≈ 46.7 µM)
- MIC (E. coli GC 6465; GC6465, read-out: MINIMAL INHIBITORY CONCENTRATION MIC, Water): > 64 µg/mL
- MIC (E. coli; read-out: Minimum inhibitory concentration (MIC), E. coli (Human Serum)): > 64 µg/mL
- MIC (E. coli; read-out: Minimum inhibitory concentration (MIC), E. coli (water)): > 64 µg/mL
- MIC (E. coli; read-out: Range of MIC, E. coli (Water)): > 64 µg/mL
- MIC (Staph.; MRSA, read-out: Range of MIC, Staph (Mouse Serum)): 4 µg/mL (≈ 5.83 µM)
- MIC (Staph.; MRSA, read-out: Range of MIC, Staph (Water)): 4 to 8 µg/mL (≈ 5.83 to 11.7 µM)
- MIC (Staph.; read-out: Minimum inhibitory concentration (MIC), Staph (Human Serum)): 2 to 4 µg/mL (≈ 2.92 to 5.83 µM)
- MIC (Staph.; read-out: Minimum inhibitory concentration (MIC), Staph (Water)): 4 to 8 µg/mL (≈ 5.83 to 11.7 µM)
- MIC (E. coli GC 2235; GC2235, read-out: MINIMAL INHIBITORY CONCENTRATION MIC, Human Serum): > 64 µg/mL
- MIC (E. coli GC 2235; GC2235, read-out: MINIMAL INHIBITORY CONCENTRATION MIC, Mouse Serum): > 64 µg/mL
- MIC (E. coli GC 2235; GC2235, read-out: MINIMAL INHIBITORY CONCENTRATION MIC, Water): > 64 µg/mL
- MIC (S. typhimurium GC 2172; read-out: MINIMAL INHIBITORY CONCENTRATION MIC, Human Serum): > 64 µg/mL
- MIC (S. typhimurium GC 2172; read-out: MINIMAL INHIBITORY CONCENTRATION MIC, Mouse Serum): > 64 µg/mL
- MIC (S. typhimurium GC 2172; read-out: MINIMAL INHIBITORY CONCENTRATION MIC, Water): > 64 µg/mL
